Source: patent US20190062749A1, “SIRNA, PHARMACEUTICAL COMPOSITION AND CONJUGATE WHICH CONTAIN SIRNA, AND USES THEREOF” (priority 2015, published 2019)
Like-named read-outs stand apart in the source and are kept apart here. d = 2'-deoxy (DNA); m = 2'-O-methyl; r = 2'-OH (RNA); f = 2'-fluoro

Legend:
[1] = test system: HBsAg; conditions: 0.1 mg/kg gastric gavage daily for 7 days
Method: The drug dosages for all animals were calculated based on the body weight and the administration volume was 10 ml/kg. The PBS group and each of the RBP131/X2M2 groups were administered with a single dose via tail vein, and the entecavir group was administered by gastric gavage daily for 7 consecutive days, i.e., once a day from day 0 to day 6. Half of the animals was sacrificed in batches at day 7 and day 28, respectively. The expression levels of HBsAg in liver tissue were detected by the detection method as described above.

[2] = Stability of siRNAs in human plasma in vitro (gel, ratio of the longest fragments RL); type: in vitro ADME; conditions: for band position / full-length state on gel (FIG. 3) / plasma stability (in words): up to 48 h
Method: The siRNAs (20 μM, 10 μl) obtained in Preparation Example 1 were incubated with 50% human plasma (HP) at 37° C. in vitro for a certain time and samples were taken therefrom. Specifically, 10 μl samples were taken at 0, 2, 4, 6, 8, 24 and 48 hours respectively and immediately snap frozen in liquid nitrogen, followed by cryopreservation at −80° C. for future use. 20 wt % non-denaturing polyacrylamide gel was formulated, and 10 μl 5-fold diluted above samples (dilution solution: 1×PBS buffer at pH 7.4) and 4 μl loading buffer (20 mM EDTA, 36 wt % glycerol, 0.06 wt % bromophenol blue) were mixed and then loaded into the gel to perform electrophoresis for about 60 minutes under 80 mA constant current. After electrophoresis finished, the gel was stained with 1× Sybr Gold dye (Invitrogen, Cat. 11494) for 15 minutes followed by imaging.
The ratio of the longest fragments remained after incubating the test siRNAs and control siRNAs with human plasma to the longest fragments of the siRNAs without the treatment of human plasma (i.e., the markers shown in FIG. 3) (also referred to as ratio of the longest fragments, RL) is calculated by reading the grayscale values quantitatively.

[3] = test system: HBV gene; conditions: prior application CN102140461B; cited from earlier work
[4] = prior application CN102140461B; cited from earlier work
[5] = prior application CN102140461B; cited from earlier work; remark: listed apart in the source
[6] = test system: HBV mRNA; experiment: Inhibition of HBV mRNA expression in transfected HepG2.2.15 cells (fluorescent qPCR); type: cell-based; conditions: 50 nM, 10 nM and 1 nM siRNA, 48 hours after transfection
Method: HepG2.2.15 cells were purchased from ATCC, cultured with DMEM complete medium (Gibco) containing 10% fetal bovine serum (FBS, Gibco), 2 mM L-glutamine (Gibco) and 380 μg/ml G418 in an incubator containing 5% CO2/95% air at 37° C.
When using the siRNAs against the X gene region of HBV or the non-specific siRNAs as negative controls synthesized in Preparation Example 1 (all of which were synthesized by Suzhou Ribo Life Science Co., Ltd.) to transfect cells, Lipofectamine™ 2000 (Invitrogen) was used as a transfection reagent. The specific procedures thereof may refer to the instruction provided by the manufacturer. […]
The final concentrations of the siRNAs were 50 nM, 10 nM and 1 nM, respectively. The expression levels of HBV mRNA in the above harvested cells were measured by real-time fluorescent qPCR 48 hours after transfection. Specifically, RNeasy Mini Kit (QIAGEN Co., Cat. 74106) was used to extract total RNAs according to the instructions thereof, and the extracted total RNAs were reverse transcribed into cDNAs, and then the inhibitory efficiency of the siRNAs on the expression of HBV mRNA in HepG2.2.15 cells was detected by fluorescent qPCR method. […]
In this fluorescent qPCR method, the inhibitory activity of siRNA was expressed as the remaining expression of HBV gene, and was calculated as follows: […]

[7] = test system: rat primary hepatocytes; experiment: MTT cytotoxicity assay in rat primary hepatocytes; type: cell-based; conditions: 500 nM concentration
[8] = test system: HepG2.2.15 cells; experiment: MTT cytotoxicity assay in HepG2.2.15 cells; type: cell-based; conditions: 500 nM concentration
[9] = test system: HBsAg; conditions: 25 ng/g subcutaneously twice a week (day 0, 4, 7, 11, 14), day 7 to 28
Method: The drug dosages for all animals were calculated based on the body weight and the administration volume was 10 ml/kg. […] The blood was taken from mouse orbital venous plexus before administration and at day 7, 14, 21, and 28 after administration, and serum HBsAg levels were measured for each time point.
The volume of the blood taken out from the orbit was about 0.5 ml each time, and the volume of the serum was no less than 200 μl after centrifugation. HBsAg CLIA kit (Autobio, CL0310) was used to detect the expression levels of HBsAg in serum. The remaining expression of HBsAg was calculated as follows:
The remaining expression of HBsAg=(the content of HBsAg in the test group/the content of HBsAg in the PBS control group)×100%, wherein the content of HBsAg was expressed in nanograms of HBsAg per gram of liver tissue proteins.

| Molecule | RL (ratio of the longest fragments) 0 h ([2]; 50% human plasma, 37° C., 0 h) | RL (ratio of the longest fragments) 2 h ([2]; 50% human plasma, 37° C., 2 h) | RL (ratio of the longest fragments) 4 h ([2]; 50% human plasma, 37° C., 4 h) | RL (ratio of the longest fragments) 6 h ([2]; 50% human plasma, 37° C., 6 h) | RL (ratio of the longest fragments) 8 h ([2]; 50% human plasma, 37° C., 8 h) | RL (ratio of the longest fragments) 24 h ([2]; 50% human plasma, 37° C., 24 h) | RL (ratio of the longest fragments) 48 h ([2]; 50% human plasma, 37° C., 48 h) | other results |
| --- | --- | --- | --- | --- | --- | --- | --- | --- |
| C=C1[C@H](CO)[C@@H](O)C[C@@H]1n1cnc2c(=O)[nH]c(N)nc21 [ETV, entecavir] |  |  |  |  |  |  |  | inhibitory effect on the expression of HBsAg in the liver (in words) [1]: no inhibitory effect |
| A4: siRNA of CN102140461B; sense CmCmUmUmGAGGCmAUmACmUmUmCmAAAdTdT, antisense UfUmUfGAAGUfAUfGCCUfCAAGGdTdT (sense CCUUGAGGCAUACUUCAAATT; antisense UUUGAAGUAUGCCUCAAGGTT; sense: DNA at T, 2'-O-methyl at CU, RNA at AG, backbone not given here; antisense: sugars from the 5' end fmfrrrrfrfrrrfrrrrrdd, backbone not given here) [reference compound] | 100.0% | 97.5% | 93.7% | 106.0% | 91.7% | 90.0% | 81.2% | band position / full-length state on gel (FIG. 3) ([2]; 50% human plasma): band thereof significantly shifts downward gradually; activity at cell level compared to unmodified siRNA CA1 [3]: substantially equal inhibitory activity as that of siRNA CA1; stability in blood [4]: increased stability in blood |
| CA2: alternating modifications; sense CmCUmUGmAGmGCmAUmACmUUmCAmAAmdTdT, antisense UmUUmGAmAGmUAmUGmCCmUCmAAmGGmdTdT (sense CCUUGAGGCAUACUUCAAATT; antisense UUUGAAGUAUGCCUCAAGGTT; sugars from the 5' end mrmrmrmrmrmrmrmrmrmdd, backbone not given here) [reference compound] | 100.0% | 86.9% | 76.5% | 68.8% | 67.7% | 48.7% | 52.0% | plasma stability (in words) ([2]; 50% human plasma): improved but is still not satisfactory; activity at cell level compared to unmodified siRNA CA1 [3]: poorer activity at cell level; stability in blood [4]: fails to reach a stable state in the blood; cytotoxicity compared to unmodified siRNA CA1 [5]: higher cytotoxicity |
| NC-pos: negative control siRNA; sense UmUmCmUmCCGAAmCGmUGmUmCmAmCGUdTdT, antisense AfCmGfUGACAfCGfUUCGfGAGAAdTdT (sense UUCUCCGAACGUGUCACGUTT; antisense ACGUGACACGUUCGGAGAATT; chemistry not fully specified) [reference compound] |  |  |  |  |  |  |  | RL (ratio of the longest fragments) 0 h [2]: 100.0%; RL (ratio of the longest fragments) 2 h [2]: 93.4%; RL (ratio of the longest fragments) 4 h [2]: 95.9%; RL (ratio of the longest fragments) 6 h [2]: 84.9%; RL (ratio of the longest fragments) 8 h [2]: 88.6%; RL (ratio of the longest fragments) 24 h [2]: 87.1%; RL (ratio of the longest fragments) 48 h [2]: 90.0% |
| NC: negative control siRNA; sense UUCUCCGAACGUGUCACGUdTdT, antisense ACGUGACACGUUCGGAGAAdTdT (sense UUCUCCGAACGUGUCACGUTT; antisense ACGUGACACGUUCGGAGAATT; further chemistry not given here) [reference compound] |  |  |  |  |  |  |  | RL (ratio of the longest fragments) 0 h [2]: 100.0%; RL (ratio of the longest fragments) 2 h [2]: 83.9%; RL (ratio of the longest fragments) 4 h [2]: 69.7%; RL (ratio of the longest fragments) 6 h [2]: 58.4%; RL (ratio of the longest fragments) 8 h [2]: 52.6%; RL (ratio of the longest fragments) 24 h [2]: 36.2%; RL (ratio of the longest fragments) 48 h [2]: 26.0% |
| X2M2(S++): sense CmCmUmUmGAGGCmAUmACmUmUmCmAAAdT-s-dT, antisense UfUmUfGAAGUfAUGCCUfCAAGGdT-s-dT (sense CCUUGAGGCAUACUUCAAAT; antisense UUUGAAGUAUGCCUCAAGGT; chemistry not fully specified) | 100.0% | 101.5% | 98.2% | 98.6% | 93.0% | 92.1% | 90.9% |  |
| X2M2(S−−): sense CmCmUmUmGAGGCmAUmACmUmUmCmAAAdTdT, antisense UfUmUfGAAGUfAUGCCUfCAAGGdTdT (as printed in the source, key not given here) | 100.0% | 111.3% | 97.5% | 90.2% | 96.1% | 109.1% | 93.9% |  |
| X2M2: siRNA against HBV X gene; sense CmCmUmUmGAGGCmAUmACmUmUmCmAAA-dTdT, antisense UfUmUfGAAGUfAUGCCUfCAAGG-dTdT; covers S++, S−−, S+−, S−+ (sense CCUUGAGGCAUACUUCAAATT; antisense UUUGAAGUAUGCCUCAAGGTT; sense: DNA at T, 2'-O-methyl at CU, RNA at AG, backbone not given here; antisense: sugars from the 5' end fmfrrrrfrrrrrfrrrrrdd, backbone not given here; phosphorothioate variants at dT overhangs exist) |  |  |  |  |  |  | ≥ 90% | band position / full-length state on gel (FIG. 3) ([2]; 50% human plasma): maintain a full-length state all the time; plasma stability (in words) ([2]; 50% human plasma): more excellent plasma stability than siRNA A4; inhibitory activity on HBV mRNA expression in HepG2.2.15 cells (FIG. 2, in words) [6]: excellent activity at cell level; cytotoxicity by MTT assay [7]: no cytotoxicity was observed; cytotoxicity by MTT assay [8]: no cytotoxicity was observed |
| interferon [IFN] |  |  |  |  |  |  |  | inhibitory effect on the expression of HBsAg in serum (in words) [9]: no inhibitory effect |
